Measured values reported in ChEMBL document CHEMBL1125239, “Synthesis and biological evaluation of 5-deazaisofolic acid, 5-deaza-5,6,7,8-tetrahydroisofolic acid, and their N9-substituted analogues” (J Med Chem, 1991).

Legend:
[1] = test system: MCF7; test: Effective dose which is required to inhibit 50% of the cell growth of MCF-7 cells in culture.; format: functional; details: Homo sapiens, read-out: ED50 (the source's name)
[2] = Ratio of relative Vmax values to that of apparent Km values.; format: ADME
[3] = molecular target: Bifunctional purine biosynthesis protein ATIC (Homo sapiens, UniProt P31939); test: Inhibition of 5-aminoimidazole-4-carboxamide AICAR formyltransferase in MOLT-4 cells; format: cell-based; details: read-out: I50
Sequence of Bifunctional purine biosynthesis protein ATIC (P31939 whole entry): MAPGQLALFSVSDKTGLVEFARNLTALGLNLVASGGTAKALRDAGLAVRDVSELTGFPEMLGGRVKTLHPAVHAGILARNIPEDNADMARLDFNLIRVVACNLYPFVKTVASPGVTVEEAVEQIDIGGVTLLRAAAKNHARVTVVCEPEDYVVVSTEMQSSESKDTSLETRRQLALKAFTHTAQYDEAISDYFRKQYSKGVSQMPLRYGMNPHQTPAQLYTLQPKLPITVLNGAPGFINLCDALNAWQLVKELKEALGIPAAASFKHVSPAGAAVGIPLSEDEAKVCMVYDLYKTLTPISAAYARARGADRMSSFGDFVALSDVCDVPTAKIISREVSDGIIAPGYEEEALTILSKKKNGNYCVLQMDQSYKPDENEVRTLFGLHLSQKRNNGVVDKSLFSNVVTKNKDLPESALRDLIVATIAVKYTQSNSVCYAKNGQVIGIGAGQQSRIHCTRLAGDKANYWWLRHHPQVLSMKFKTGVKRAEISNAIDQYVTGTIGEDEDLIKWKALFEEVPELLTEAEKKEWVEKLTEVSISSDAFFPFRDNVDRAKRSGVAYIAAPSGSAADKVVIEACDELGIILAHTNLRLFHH

[4] = species: Sus scrofa; test: (§1) Compound was evaluated for the substrate activity for hog liver Folyl-polyglutamate synthase
[5] = molecular target: Thymidylate synthase (Homo sapiens, UniProt P04818); test: Inhibition of thymidylate synthase (TS) in human; details: read-out: I50
Sequence of Thymidylate synthase (P04818 whole entry): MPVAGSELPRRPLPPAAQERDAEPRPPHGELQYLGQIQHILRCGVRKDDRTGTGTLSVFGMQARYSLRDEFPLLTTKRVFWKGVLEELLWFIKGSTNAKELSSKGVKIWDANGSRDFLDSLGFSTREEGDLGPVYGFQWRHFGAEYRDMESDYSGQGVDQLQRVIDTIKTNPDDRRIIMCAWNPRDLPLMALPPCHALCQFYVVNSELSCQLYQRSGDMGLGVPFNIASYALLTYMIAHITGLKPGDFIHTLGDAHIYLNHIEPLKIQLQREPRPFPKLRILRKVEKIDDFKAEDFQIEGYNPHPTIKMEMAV

[6] = molecular target: T1, Dihydrofolate reductase (Homo sapiens, UniProt P00374); test: Inhibition of dihydrofolate reductase (DHFR) in WIL2 cells; format: cell-based; details: read-out: I50
T1 sequence (P00374 whole entry): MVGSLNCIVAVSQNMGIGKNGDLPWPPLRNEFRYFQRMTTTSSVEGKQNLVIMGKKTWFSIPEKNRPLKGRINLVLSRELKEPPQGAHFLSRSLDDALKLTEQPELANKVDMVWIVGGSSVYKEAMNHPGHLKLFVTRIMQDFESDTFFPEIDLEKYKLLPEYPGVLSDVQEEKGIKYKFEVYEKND

[7] = test system: MOLT-4; test: Inhibition of the uptake of [3H]MTX influx into MOLT-4 cells.; format: functional, cell-based, Homo sapiens
[8] = species: Sus scrofa; test: Compound was evaluated for the substrate activity for hog liver […] synthetase
[9] = test system: Folyl-polyglutamate synthase; test: as §1; format: ADME, tissue-based, Sus scrofa; details: pig, hog liver folylpolyglutamate synthase; read-out: Km app

Row | Structure (SMILES) | EC50 [1] [µM] | Ratio [2] | IC50 [3] [µM] | Km [4] [µM] | IC50 [5] [µM] | IC50 [6] [µM] | Km [8] [µM] | Km [9] [µM] | Ki [7] [µM]
1 | Nc1nc(O)c2c(n1)NCC(CCc1ccc(C(=O)NC(CCC(=O)O)C(=O)O)cc1)C2 (configuration not stated) | 0.018 | – | – | 17.5 | > 1000 | > 100 | – | – | 1.5
2 | CN(Cc1ccc(C(=O)NC(CCC(=O)O)C(=O)O)cc1)c1cnc2nc(N)nc(O)c2c1 (configuration not stated) | 35 | 0.85 | 141 | 55.3 | 0.48 | 0.25 | – | – | –
3 | Nc1nc(O)c2cc(N(C=O)Cc3ccc(C(=O)NC(CCC(=O)O)C(=O)O)cc3)cnc2n1 (configuration not stated) | > 100 | – | 49.9 | > 100 | 28.8 | 1.95 | – | – | –
4 | Nc1nc(O)c2cc(NCc3ccc(C(=O)NC(CCC(=O)O)C(=O)O)cc3)cnc2n1 (configuration not stated) | > 100 | – | 62.8 | 133 | 7.1 | 0.21 | – | – | > 30

Further lines, with some results ahead:

Row | EC50 [1] [µM] | Ratio [2] | IC50 [3] [µM] | Km [4] [µM] | IC50 [5] [µM] | IC50 [6] [µM] | Km [8] [µM] | Km [9] [µM] | Structure (SMILES) | Ki [7] [µM]
5 | 1.2 | 1 | > 100 | 67.4 | > 100 | > 1000 | – | – | Nc1nc(O)c2c(n1)NCC(NCc1ccc(C(=O)NC(CCC(=O)O)C(=O)O)cc1)C2 (configuration not stated) | 17.5
6 | 4.5 | 7 | > 100 | – | > 100 | > 1000 | 9.4 | – | CN(Cc1ccc(C(=O)NC(CCC(=O)O)C(=O)O)cc1)C1CNc2nc(N)nc(O)c2C1 (configuration not stated) | 22
7 | 0.037 | 14.9 | – | – | > 100 | > 100 | – | 6.7 | Nc1nc(N)c(CCCNc2ccc(C(=O)N[C@@H](CCC(=O)O)C(=O)O)cc2)c(O)n1 | 1
